Test system: HOP-62 multicell spheroids with HUVEC/MSC, viability
Test: Anticancer human tumor HOP-62 cell line growth inhibition [KRAS2];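 also: viability read after a week of compound exposure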;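 as to viability, T/C: 100% = DMSO vehicle-treated spheroids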
Details: for IC50: curve of first compound; for viability, T/C: stronger effect = lower value
Excerpt: Multicellular complex tumor spheroid response to RAS pathway inhibitors in combination with a targeted agents in patient-derived cell lines with oncogenic KRAS variants from multiple cancer types
A high-throughput screen of multi-cell type tumor spheroids was designed to identify active combinations of targeted small molecules and KRAS pathway inhibitors. Complex spheroids include a stromal component modeled by human endothelial cells (HUVEC) and fibroblasts modeled by human mesenchymal stem cells (MSCs). The concentration ranges selected for each drug and investigational agent were based upon clinically achievable concentrations if the clinical Cmax of the agent was known.
Compounds. The drugs and investigational agents: BI-3406 (NSC825286), BAY-293 (NSC824723), batoprotafib (TNO155; NSC825523), sotorasib (AMG 510; NSC818433), MRTX1257 (NSC819558), elimusertib (BAY 1895344; NSC800525), molibresib (GSK525762; NSC774829), temuterkib (LY3214996; NSC803410), venetoclax (NSC766270), alisertib (NSC759677), olaparib (NSC753686), talazoparib (NSC767125), erdafitinib (NSC781556), ipatasertib (NSC767898), cabozantinib (NSC761068), nintedanib (NSC756659), abemaciclib (NSC768073), docetaxel (NSC628503), trametinib (NSC758246), and sapanisertib (NSC764658) were obtained from the National Cancer Institute (NCI) Developmental Therapeutics Program Chemical Repository. The FDA-approved anticancer drug set is available from the Developmental Therapeutics Program. […] The stock solutions were prepared in dimethyl sulfoxide (DMSO, Sigma-Aldrich, St. Louis, MO, cat. D2650) at 800-fold the tested concentration and stored at -70 degrees C prior to their use. All drugs and investigational agents were tested over a range starting from a high concentration at or near the clinical Cmax and decreasing in half-log increments. If the clinical Cmax for an agent had not been determined, the highest concentration tested was 10 microM.
Cell Culture. All cells were maintained in an incubator at 37 degrees C and 5% CO2 with 95% humidity. The PDC lines were cultured according to standard operating procedures established by the NCI PDMR (https://pdmr.cancer.gov/sops/default.htm). Briefly, all PDCs were thawed and cultured in Matrigel-coated flasks prepared with a working solution of 1X Ham's F-12 nutrient mix, without supplementation (Invitrogen, Waltham, MA, cat. 11765054), 100 U/mL penicillin-streptomycin (Invitrogen, cat. 15140122), and 2.5% Matrigel (Corning Inc., Corning, NY, cat. 354248) for the first three passages. All PDCs were cultured in complete DMEM/F-12 media containing advanced DMEM/F-12 (Invitrogen, cat. 12634028), 4.9% defined fetal bovine serum, heat inactivated (HyClone Laboratories Inc., Logan, UT, cat. SH30070.03HI), 389 ng/mL hydrocortisone (Sigma-Aldrich, cat. H4001), 9.7 ng/mL human EGF recombinant protein (Invitrogen, cat. PHG0313), 23.4 microg/mL adenine (Sigma-Aldrich, cat. A2786), 97.3 U/mL penicillin-streptomycin (Invitrogen, cat. 15140122), 1.9 mM L-glutamine (Invitrogen, cat. 25030081), and 9.7 microM Y-27632 dihydrochloride (Tocris Bioscience, Bristol, United Kingdom, cat. 1254). The PDCs were cultured in complete DMEM/F12 media without 9.7 microM Y-27632 dihydrochloride for at least two passages prior to the screen. The established cell line HOP-62 was cultured in RPMI 1640 medium, HEPES (Invitrogen, cat. 22400105) with 10% defined fetal bovine serum (HyClone Laboratories Inc., cat. SH30070.03) and 2 mM L-glutamine (Invitrogen, cat. 25030081). The pooled donor HUVEC were cultured in endothelial cell growth medium 2 (PromoCell, Heidelberg, Germany, cat. C-22011) and the hMSC were cultured in mesenchymal stem cell growth medium 2 (PromoCell, cat. C-28009). For all experiments, HUVEC and hMSC were used at passages </=5, while the malignant cell lines were used at passages </=15. […]

[1] = second compound 0.1 µM, first compound 0.0316 µM
[2] = second compound 0.1 µM, first compound 0.1 µM
[3] = second compound 0.1 µM, first compound 0.316 µM
[4] = second compound 0.1 µM, first compound 1 µM
[5] = second compound 0.1 µM, first compound 3.16 µM
[6] = second compound 0.316 µM, first compound 0.0316 µM
[7] = second compound 0.316 µM, first compound 0.1 µM
[8] = second compound 0.316 µM, first compound 0.316 µM
[9] = second compound 0.316 µM, first compound 1 µM
[10] = second compound 0.316 µM, first compound 3.16 µM
[11] = second compound 1 µM, first compound 0.0316 µM
[12] = second compound 1 µM, first compound 0.1 µM
[13] = second compound 1 µM, first compound 0.316 µM
[14] = second compound 1 µM, first compound 1 µM
[15] = second compound 1 µM, first compound 3.16 µM
[16] = second compound 3.16 µM, first compound 0.0316 µM
[17] = second compound 3.16 µM, first compound 0.1 µM
[18] = second compound 3.16 µM, first compound 0.316 µM
[19] = second compound 3.16 µM, first compound 1 µM
[20] = second compound 3.16 µM, first compound 3.16 µM
[21] = second compound 10 µM, first compound 0.0316 µM
[22] = second compound 10 µM, first compound 0.1 µM
[23] = second compound 10 µM, first compound 0.316 µM
[24] = second compound 10 µM, first compound 1 µM
[25] = second compound 10 µM, first compound 3.16 µM
[26] = second compound 0.1 µM, first compound 10 µM
[27] = second compound 0.316 µM, first compound 10 µM
[28] = second compound 1 µM, first compound 10 µM
[29] = second compound 3.16 µM, first compound 10 µM
[30] = second compound 10 µM, first compound 10 µM

Row | SMILES | IC50 (second compound 0.1 µM) | IC50 (second compound 0.316 µM) | IC50 (second compound 1 µM) | IC50 (second compound 3.16 µM) | IC50 (second compound 10 µM) | viability, T/C [1] | viability, T/C [2] | viability, T/C [3] | viability, T/C [4] | viability, T/C [5] | viability, T/C [6] | viability, T/C [7] | viability, T/C [8] | viability, T/C [9] | viability, T/C [10] | viability, T/C [11] | viability, T/C [12] | viability, T/C [13] | viability, T/C [14] | viability, T/C [15] | also measured
1 | CC1COCCN1c1cc(-c2ccnn2C)c2ccnc(-c3ccn[nH]3)c2n1 (stereo not given) + CNCc1ccccc1-c1csc(C(C)Nc2nc(C)nc3cc(OC)c(OC)cc23)c1 | 54.9 nM | 61.1 nM | 36.9 nM | < 10 nM | < 10 nM | 73.1% | 25.3% | 13.5% | 14% | 16.4% | 78.8% | 28.7% | 14.2% | 15.2% | 14.3% | 53.9% | 25.2% | 17.4% | 14.7% | 12.8% | viability, T/C (second compound 0.1 µM, first compound 0.01 µM): 106%; viability, T/C (second compound 0.316 µM, first compound 0.01 µM): 106%; viability, T/C (second compound 1 µM, first compound 0.01 µM): 94.9%; viability, T/C (second compound 3.16 µM, first compound 0.01 µM): 3.68%; viability, T/C [16]: 0.24%; viability, T/C [17]: 2.16%; viability, T/C [18]: 0.06%; viability, T/C [19]: 0.06%; viability, T/C [20]: 0.27%; viability, T/C (second compound 10 µM, first compound 0.01 µM): 0.1%; viability, T/C [21]: 0.64%; viability, T/C [22]: 0.08%; viability, T/C [23]: 0.09%; viability, T/C [24]: 0.58%; viability, T/C [25]: 0.16%
2 | CCNC(=O)CC1N=C(c2ccc(Cl)cc2)c2cc(OC)ccc2-n2c(C)nnc21 (stereo not given) + CC1OCC2(CCN(c3cnc(Sc4ccnc(N)c4Cl)c(N)n3)CC2)C1N | 250 nM | 200 nM | 136 nM | 50.8 nM | < 31.6 nM | 103% | 74.5% | 45.2% | 27.6% | 28.6% | 96.2% | 65.5% | 40.9% | 25.1% | 24.3% | 75.9% | 55.6% | 34.5% | 19.8% | 22.1% | viability, T/C [26]: 28.1%; viability, T/C [27]: 23.6%; viability, T/C [28]: 19.7%; viability, T/C [16]: 60%; viability, T/C [17]: 35.5%; viability, T/C [18]: 25.9%; viability, T/C [19]: 21.2%; viability, T/C [20]: 16.1%; viability, T/C [29]: 15.3%; viability, T/C [21]: 32.4%; viability, T/C [22]: 21.7%; viability, T/C [23]: 18.6%; viability, T/C [24]: 11.5%; viability, T/C [25]: 11.7%; viability, T/C [30]: 9.82%
3 | CC1OCC2(CCN(c3cnc(Sc4ccnc(N)c4Cl)c(N)n3)CC2)C1N (stereo not given) + CNCc1ccccc1-c1csc(C(C)Nc2nc(C)nc3cc(OC)c(OC)cc23)c1 | > 10000 nM | > 10000 nM | 638 nM | < 31.6 nM | < 31.6 nM | 89.8% | 80.4% | 74.1% | 67.5% | 65.3% | 85.5% | 88% | 69.2% | 53.6% | 52.3% | 82.3% | 76.2% | 58.8% | 45.4% | 33.5% | viability, T/C [26]: 58.8%; viability, T/C [27]: 49.7%; viability, T/C [28]: 34.1%; viability, T/C [16]: 34.3%; viability, T/C [17]: 7.49%; viability, T/C [18]: 0.61%; viability, T/C [19]: 0.1%; viability, T/C [20]: 0.15%; viability, T/C [29]: 0.15%; viability, T/C [21]: 0.13%; viability, T/C [22]: 0.17%; viability, T/C [23]: 0.09%; viability, T/C [24]: 0.09%; viability, T/C [25]: 0.6%; viability, T/C [30]: 0.16%

From PubChem BioAssay AID1963858 (Molecular Pharmacology Branch, DTP, NCI, 2024)
